23 compounds from PubChem BioAssay AID330 (DTP/NCI, 2004) can be followed below.

This test relates to P388 leukemia ip, CD2F1 mice, survival T/C. As to the kind of experiment: NCI In Vivo Anticancer Drug Screen. Data for tumor model P388 Leukemia (intraperitoneal) in CD2F1 (CDF1) mice. The settings on record: endpoint: median survival time, higher = longer survival. The procedure, abridged:
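Mice carrying the transplanted tumor received test compound or vehicle. Survival was recorded in each group, and the value is the treated-group measurement divided by that of the vehicle-treated control group.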

The mark [1] stands for this setting: dose: 50.0 mg/kg/injection, schedule: Q01DX009 (ip), vehicle: saline with Tween-80.
[2] abbreviates: dose: 100.0 mg/kg/injection, schedule: Q01DX009 (ip), vehicle: saline with Tween-80.
The mark [3] stands for this setting: dose: 200.0 mg/kg/injection, schedule: Q01DX009 (ip), vehicle: saline with Tween-80.
Where [4] appears, read: dose: 6.25 mg/kg/injection, schedule: Q01DX009 (ip), vehicle: saline with Tween-80.
Where [5] appears, read: dose: 12.5 mg/kg/injection, schedule: Q01DX009 (ip), vehicle: saline with Tween-80.
Setting [6] is: dose: 25.0 mg/kg/injection, schedule: Q01DX009 (ip), vehicle: saline with Tween-80.
Where [7] appears, read: dose: 100.0 mg/kg/injection, schedule: Q04DX002 (ip), vehicle: saline with Tween-80.
The mark [8] stands for this setting: dose: 200.0 mg/kg/injection, schedule: Q04DX002 (ip), vehicle: saline with Tween-80.
Setting [9] is: dose: 400.0 mg/kg/injection, schedule: Q04DX002 (ip), vehicle: saline with Tween-80.
[10] abbreviates: dose: 50.0 mg/kg/injection, schedule: Q01DX009 (ip), vehicle: Klucel (hydroxypropylcellulose) (HPC).
Setting [11] is: dose: 50.0 mg/kg/injection, schedule: Q01DX005 (ip), vehicle: Klucel (hydroxypropylcellulose) (HPC).
Setting [12] is: dose: 200.0 mg/kg/injection, schedule: Q01DX005 (ip), vehicle: Klucel (hydroxypropylcellulose) (HPC).
The mark [13] stands for this setting: dose: 100.0 mg/kg/injection, schedule: Q01DX005 (ip), vehicle: Klucel (hydroxypropylcellulose) (HPC).

Molecules are shown by their SMILES. Several values for one entry are separate records, joined by “and”; a condition that tells them apart may be missing. Identical values can stand only once. Toxic doses and inconclusive results are not listed.

Turning to `Cc1nc2c(Cl)cc(Cl)cc2c(=O)n1CC(=O)NNC(N)=S`, the T/C under setting [1] is 97 % of control, the T/C under setting [2] was 94 % of control and the T/C under setting [3] was 93 % of control.

With `COC1OC(COS(C)(=O)=O)C(O)C(O)C1OS(C)(=O)=O` (stereo not given), the T/C (dose: 50.0 mg/kg/injection, schedule: Q01DX009 (ip), vehicle: saline) is 110 % of control; the T/C (dose: 100.0 mg/kg/injection, schedule: Q01DX009 (ip), vehicle: saline) was 106 % of control; the T/C (dose: 200.0 mg/kg/injection, schedule: Q01DX009 (ip), vehicle: saline) was 106 % of control.

Take `CCCCCCCC1(O)OC(=O)C(C)=C1C` (stereo not given): the T/C runs as follows: (dose: 12.5 mg/kg/injection, schedule: Q04DX003 (ip), vehicle: saline with Tween-80) 101 % of control; (dose: 25.0 mg/kg/injection, schedule: Q04DX003 (ip), vehicle: saline with Tween-80) 108 % of control; (dose: 50.0 mg/kg/injection, schedule: Q04DX003 (ip), vehicle: saline with Tween-80) 100 % of control.

For the compound `COC1=NC=CC=CC1`, the T/C under setting [4] was 103 % of control, the T/C under setting [5] was 111 % of control and the T/C under setting [6] was 107 % of control.

In the case of `CC1(C)c2ccccc2Nc2ccccc21`, the T/C was 100 % of control (dose: 100.0 mg/kg/injection, schedule: Q04DX003 (ip), vehicle: saline with Tween-80) and 91 % of control (dose: 200.0 mg/kg/injection, schedule: Q04DX003 (ip), vehicle: saline with Tween-80).

For `O=C(O)c1nc2ccccc2c2ncccc12`, the T/C by setting is: (dose: 25.0 mg/kg/injection, schedule: Q04DX002 (ip), vehicle: saline with Tween-80) 101 % of control; (dose: 50.0 mg/kg/injection, schedule: Q04DX002 (ip), vehicle: saline with Tween-80) 92 % of control; under setting [7], 94 % of control.

As for `CC(C)(C)N=C(NC#N)Nc1cccnc1Cl`, the T/C by setting is: under setting [7], 103 % of control; under setting [8], 94 % of control; under setting [9], 92 % of control.

Turning to `CN(C)CC[Si](C)(C)N(C)C`, the T/C by setting is: (dose: 60.0 mg/kg/injection, schedule: Q01DX005 (ip), vehicle: saline) 107 % of control; (dose: 120.0 mg/kg/injection, schedule: Q01DX005 (ip), vehicle: saline) 102 % of control.

With `O=C(O)c1cccc2cccc(-c3c4ccc(=O)c(O)c-4oc4c(O)c(O)ccc34)c12`, the T/C is 109 % of control under setting [2] and 113 % of control under setting [3].

For `NC(CSC(c1ccccc1)(c1ccccc1)c1ccc2ccccc2c1)C(=O)O` (stereo not given), the T/C is, setting by setting: (dose: 3.13 mg/kg/injection, schedule: Q01DX009 (ip), vehicle: saline with Tween-80) 186 % of control; (dose: 3.13 mg/kg/injection, schedule: Q01DX009 (ip), vehicle: water) 169 % of control; under setting [4], 198 % of control; (dose: 6.25 mg/kg/injection, schedule: Q01DX009 (ip), vehicle: water) 189 % of control; under setting [5], 261 % of control; (dose: 12.5 mg/kg/injection, schedule: Q01DX009 (ip), vehicle: water) 216 % of control. Also, the T/C under setting [6] is 90 % of control and the T/C (dose: 25.0 mg/kg/injection, schedule: Q01DX009 (ip), vehicle: water) was 99 % of control.

For the compound `S=C(Nc1ccccc1)Nc1ccc(N(CCCl)CCCl)cc1`, the T/C by setting is: (dose: 100.0 mg/kg/injection, schedule: Q04DX003 (ip), vehicle: Klucel (hydroxypropylcellulose) (HPC)) 106 % of control; (dose: 200.0 mg/kg/injection, schedule: Q04DX003 (ip), vehicle: Klucel (hydroxypropylcellulose) (HPC)) 114 % of control; (dose: 400.0 mg/kg/injection, schedule: Q04DX003 (ip), vehicle: Klucel (hydroxypropylcellulose) (HPC)) 111 % of control.

Consider `Cc1ccc(N=Cc2ccc(C=Nc3ccc(C)c(Cl)c3)cc2)cc1Cl`, for which the T/C reads like this: under setting [10], 92 % of control; (dose: 100.0 mg/kg/injection, schedule: Q01DX009 (ip), vehicle: Klucel (hydroxypropylcellulose) (HPC)) 91 % of control; (dose: 200.0 mg/kg/injection, schedule: Q01DX009 (ip), vehicle: Klucel (hydroxypropylcellulose) (HPC)) 100 % of control.

Regarding `CSc1nc(Cl)cc(Sc2nc(N)nc3nc[nH]c23)n1`, the T/C is, setting by setting: (dose: 12.5 mg/kg/injection, schedule: Q01DX009 (ip), vehicle: Klucel (hydroxypropylcellulose) (HPC)) 98 % of control; (dose: 25.0 mg/kg/injection, schedule: Q01DX009 (ip), vehicle: Klucel (hydroxypropylcellulose) (HPC)) 101 % of control and 107 % of control; under setting [10], 123 % of control and 124 % of control.

`CC(=O)c1c(O)c(C)c(O)c2c1OC1=Cc3c(c(C)nn3C)C(=O)C12C` (stereo not given): the T/C was 100 % of control and 109 % of control (dose: 6.25 mg/kg/injection, schedule: Q01DX009 (ip), vehicle: gum acacia); 119 % of control and 92 % of control and 93 % of control (dose: 50.0 mg/kg/injection, schedule: Q01DX009 (ip), vehicle: gum acacia).

Regarding `O=c1[nH]c(=O)n(C2CC(O)C(CS)O2)cc1F` (stereo not given), the T/C under setting [11] was 115 % of control; the T/C under setting [12] is 150 % of control and 159 % of control; the T/C (dose: 400.0 mg/kg/injection, schedule: Q01DX005 (ip), vehicle: Klucel (hydroxypropylcellulose) (HPC)) is 186 % of control.

For the compound `OCC1OC(O)C(N=Cc2ccccc2O)C(O)C1O` (stereo not given), the T/C under setting [11] is 104 % of control, the T/C under setting [13] was 104 % of control and the T/C under setting [12] is 106 % of control.

As for `OCCN(CCO)c1cc2c3ccccc3ccc2c2ccccc12`, the T/C runs as follows: under setting [11], 87 % of control; under setting [13], 103 % of control; under setting [12], 98 % of control.

Regarding `COC(=O)CCc1cc(=O)oc2c(I)c(O)cc(O)c12`, the T/C is, setting by setting: (dose: 8.75 mg/kg/injection, schedule: Q01DX005 (ip), vehicle: Klucel (hydroxypropylcellulose) (HPC)) 99 % of control; (dose: 17.5 mg/kg/injection, schedule: Q01DX005 (ip), vehicle: Klucel (hydroxypropylcellulose) (HPC)) 93 % of control; (dose: 35.0 mg/kg/injection, schedule: Q01DX005 (ip), vehicle: Klucel (hydroxypropylcellulose) (HPC)) 101 % of control.

Take `Cc1n[nH]c(=S)n1C`: the T/C reads like this: (dose: 43.75 mg/kg/injection, schedule: Q04DX003 (ip), vehicle: saline sonified) 95 % of control; (dose: 87.5 mg/kg/injection, schedule: Q04DX003 (ip), vehicle: saline sonified) 100 % of control; (dose: 175.0 mg/kg/injection, schedule: Q04DX003 (ip), vehicle: saline sonified) 90 % of control.

As for `O=C1CCCc2cc3c(nc21)C(=O)CCC3`, the T/C is, setting by setting: under setting [11], 100 % of control; under setting [13], 100 % of control; under setting [12], 109 % of control.

Regarding `COc1cccc2c1C(=O)c1c(O)c3c(c(O)c1C2=O)CC(O)(C(=O)CO)CC3OC1CC(N)C(I)C(C)O1` (stereo not given), the T/C by setting is: (dose: 5.0 mg/kg/injection, schedule: Q01DX001 (ip), vehicle: saline) 165 % of control and 170 % of control; (dose: 7.5 mg/kg/injection, schedule: Q01DX001 (ip), vehicle: saline) 167 % of control and 191 % of control; (dose: 11.2 mg/kg/injection, schedule: Q01DX001 (ip), vehicle: saline) 208 % of control and 212 % of control; (dose: 16.8 mg/kg/injection, schedule: Q01DX001 (ip), vehicle: saline) 220 % of control; (dose: 25.2 mg/kg/injection, schedule: Q01DX001 (ip), vehicle: saline) 234 % of control.

Consider `COc1ccc(Br)cc1`, for which the T/C runs as follows: under setting [1], 104 % of control; (dose: 50.0 mg/kg/injection, schedule: Q04DX003 (ip), vehicle: saline) 100 % of control; under setting [2], 118 % of control; (dose: 100.0 mg/kg/injection, schedule: Q04DX003 (ip), vehicle: saline) 105 % of control; under setting [3], 109 % of control; (dose: 200.0 mg/kg/injection, schedule: Q04DX003 (ip), vehicle: saline) 110 % of control.

`CNc1nc(OC)nc2c1cnn2C1CCCCO1` (stereo not given): the T/C under setting [7] was 97 % of control, the T/C under setting [8] is 100 % of control and the T/C under setting [9] was 94 % of control.
